According to article PMC6323793 (BMC Cancer, 2019):
Where two headings read alike, the source gives them in different places.

How the values were obtained:
recombinant human Cdc25B = biological target: T1, recombinant human Cdc25B (Homo sapiens, UniProt P30305); assay: Cdc25B fluorometric phosphatase assay (OMFP substrate); type: biochemical
T1 construct: purchased CycLex CY-1353
T1 sequence (P30305 1-580): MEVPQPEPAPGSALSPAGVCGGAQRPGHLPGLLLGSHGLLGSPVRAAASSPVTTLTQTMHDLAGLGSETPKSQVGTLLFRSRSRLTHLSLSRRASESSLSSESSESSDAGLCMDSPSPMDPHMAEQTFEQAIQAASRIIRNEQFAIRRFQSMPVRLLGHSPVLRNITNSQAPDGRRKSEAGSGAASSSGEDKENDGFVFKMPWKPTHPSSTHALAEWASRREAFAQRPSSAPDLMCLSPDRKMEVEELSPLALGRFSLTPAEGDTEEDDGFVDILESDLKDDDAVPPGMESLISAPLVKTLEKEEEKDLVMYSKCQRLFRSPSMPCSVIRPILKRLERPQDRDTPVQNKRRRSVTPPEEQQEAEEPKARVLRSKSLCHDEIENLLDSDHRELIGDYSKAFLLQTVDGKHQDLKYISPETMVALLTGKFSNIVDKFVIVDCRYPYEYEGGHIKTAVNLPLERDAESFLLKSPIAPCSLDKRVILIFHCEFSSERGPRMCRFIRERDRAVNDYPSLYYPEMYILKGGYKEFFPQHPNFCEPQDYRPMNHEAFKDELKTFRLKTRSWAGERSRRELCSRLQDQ
Procedure: Then, 25 μL of stop solution was added. Fluorescence was measured at an excitation wavelength of 485 nm and an emission wavelength of 530 nm using a fluorescence microplate reader (BioTek Instruments, Inc., Winooski, VT, USA). Menadione is a quinone-type inhibitor of Cdc25s that was used as a positive control here.

recombinant human Cdc25C = biological target: T2, recombinant human Cdc25C (Homo sapiens, UniProt P30307); assay: Cdc25C fluorometric phosphatase assay (OMFP substrate); type: biochemical
T2 construct: purchased CycLex CY-1354
T2 sequence (P30307 1-473): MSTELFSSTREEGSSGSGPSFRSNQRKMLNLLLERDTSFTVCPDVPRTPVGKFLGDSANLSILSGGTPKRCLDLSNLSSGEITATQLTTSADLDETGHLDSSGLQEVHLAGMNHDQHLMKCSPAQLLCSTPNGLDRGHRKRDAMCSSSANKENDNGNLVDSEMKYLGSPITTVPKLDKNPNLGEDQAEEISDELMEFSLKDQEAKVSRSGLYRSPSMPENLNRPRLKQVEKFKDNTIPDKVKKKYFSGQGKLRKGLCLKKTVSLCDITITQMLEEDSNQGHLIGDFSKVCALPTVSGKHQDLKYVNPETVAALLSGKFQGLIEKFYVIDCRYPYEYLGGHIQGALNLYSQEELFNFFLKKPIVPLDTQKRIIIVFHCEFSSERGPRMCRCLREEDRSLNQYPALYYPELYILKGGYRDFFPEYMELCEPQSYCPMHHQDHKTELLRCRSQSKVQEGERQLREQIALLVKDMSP
Procedure: (§1) In summary, dual-specificity phosphatase activity was measured in a 96-well microtiter plate using O-methylfluorescein phosphate (OMFP) as a substrate. 5 μL (0.1 μg/μL) of purified recombinant Cdc25s (Cdc25A, -B and -C) was mixed with 40 μL of assay mixture and incubated with 5 μL of the test compound at various concentrations in a well. Then, 25 μL of stop solution was added. […] Menadione is a quinone-type inhibitor of Cdc25s that was used as a positive control here.

recombinant human Cdc25A = biological target: T3, recombinant human Cdc25A (Homo sapiens, UniProt P30304); assay: Cdc25A fluorometric phosphatase assay (OMFP substrate); type: biochemical
T3 construct: purchased CycLex CY-1352
T3 sequence (P30304 1-524): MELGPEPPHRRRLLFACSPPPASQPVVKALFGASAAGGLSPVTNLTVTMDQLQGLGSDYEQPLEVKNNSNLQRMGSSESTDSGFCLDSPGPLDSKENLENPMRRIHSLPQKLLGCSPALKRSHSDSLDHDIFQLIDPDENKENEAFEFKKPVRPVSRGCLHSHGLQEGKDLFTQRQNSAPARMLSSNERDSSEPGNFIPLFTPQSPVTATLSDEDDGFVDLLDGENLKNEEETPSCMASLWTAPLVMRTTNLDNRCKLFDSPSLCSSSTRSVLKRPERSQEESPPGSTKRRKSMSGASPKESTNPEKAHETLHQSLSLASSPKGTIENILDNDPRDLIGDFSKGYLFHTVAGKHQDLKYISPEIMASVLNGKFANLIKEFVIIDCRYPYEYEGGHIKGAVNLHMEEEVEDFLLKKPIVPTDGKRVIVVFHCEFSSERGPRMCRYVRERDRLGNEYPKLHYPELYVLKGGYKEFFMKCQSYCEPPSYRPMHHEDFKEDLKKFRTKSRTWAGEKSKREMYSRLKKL
Procedure: as §1

MCF-7 cells [1] = assay: MTT anti-proliferation assay, MCF-7; settings: Homo sapiens, MCF7, 48 h, read-out: IC50 MCF-7
HeLa cells = assay: MTT anti-proliferation assay, HeLa; settings: Homo sapiens, 48 h, read-out: IC50 HeLa
tsFT210 cells [2] = assay: MTT anti-proliferation assay, tsFT210; settings: Mus musculus, tsFT210, 48 h, read-out: IC50 tsFT210
tsFT210 cells [3] = assay: Cell cycle analysis by flow cytometry; type: cell-based, mouse; settings: synchronized tsFT210 cells released at 32 °C, treated for 6 h
Procedure: Cell cycle analysis was performed as described previously. […]. The harvested cells were stained with staining buffer (50 μg/ml propidium iodide, 0.1% sodium citrate and 0.2% NP-40) and analysed by Flow Cytometry (BD Biosciences). A final concentration of 0.5% DMSO was used for all compounds and as a negative control. Nocodazole, a potent mitotic blocker that arrests cells at the G2/M phase, was used as a positive control at a concentration of 100 nM.

MCF-7 cells [4] = assay: Intracellular ROS assay (DCFH-DA) in MCF-7 cells; type: cell-based; settings: 5 μM and 25 μM, 4 h, compared with control cells
Procedure: (§2) Reactive oxygen species (ROS) were detected with the fluorescent probe 2′,7′-dichlorofluorescin diacetate (DCFH-DA) as described by others. Briefly, MCF-7 cells or tsFT210 (synchronized at G2 phase) cells were plated in 96-well plates and loaded with 20 μM DCFH-DA for 30 min at 37 °C in culture medium. […] Untreated cells were used as control. Fluorescence was measured using a fluorescence microplate reader (BioTek Instruments, excitation wavelength: 485 nm, emission wavelength: 528 nm). The ROS levels were expressed as RFU (relative fluorescence unit).

[5] = test system: phosphorylated CDK1 in primary tumour tissues; assay: Phosphorylated CDK1 in tumour tissue of K562-bearing mice; type: in vivo, mouse; settings: especially the 5 and 10 mg/kg groups, vs control group
Procedure: (§3) The phosphorylation status of CDK1 was analysed by Western blotting as described in our previous work. […] The protein concentration in cell lysates was confirmed by the Bradford method. Fifty micrograms of protein per lane was resolved on 10% SDS polyacrylamide gels, and the bands were transferred to PVDF membranes (Millipore). Nonspecific reactivity was blocked by 5% non-fat milk prepared in TBST (10 mM Tris, 150 mM NaCl, 0.05% Tween-20, pH 7.5) at room temperature for 1 h. The protein signals were captured with primary antibodies and the secondary antibodies according to the manufacturers’ instructions. In this process, the protein β-actin was used to normalize target protein. All antibodies used in this paper were purchased from Cell Signaling Technology (Inc, China).
(§4) The mouse model was constructed according to our previous work. Balb/c mice (female, 5 weeks old), purchased from Shanghai SLAC Laboratory Animal Co., LTD (Shanghai, China), were subcutaneously injected into a 100 μL K562 cell suspension (5 × 10^6/mL, PBS) in the right flank of mice. […] The long and short dimensions of tumour size were measured by a digital calliper at days 1, 4, 8, 11, 16, 21, and 24 after treatment. The volume was calculated with the formula (long dimension) × (short dimension)^2/2. The mice were euthanized 2 days after the last treatment by the method of cervical dislocation.

K562 xenograft tumour = assay: K562 xenograph tumour model in mice; type: in vivo, mouse
Procedure: as §4

[6] = test system: CDK1 (tyrosine 15 phosphorylation) in tsFT210 cells; assay: Western blot of CDK1 phosphorylation status in cells; type: cell-based, mouse; settings: cells in G2/M phase, 1 μM, 5 μM and 25 μM, 4 h
Procedure: as §3

tsFT210 cells [7] = assay: Intracellular ROS assay (DCFH-DA) in tsFT210 cells; type: cell-based, mouse; settings: tsFT210 cells synchronized at G2 phase, 5 μM and 25 μM, 4 h, compared with control cells
Procedure: as §2

K562 cells = assay: MTT anti-proliferation assay, K562; settings: Homo sapiens, K562, 48 h, read-out: IC50 K562
[8] = recombinant human phosphatase, OMFP substrate, mean ± S.E.M., read-out: IC50 Cdc25B
[9] = recombinant human phosphatase, OMFP substrate, mean ± S.E.M., read-out: IC50 Cdc25C
[10] = recombinant human phosphatase, OMFP substrate, mean ± S.E.M., read-out: IC50 Cdc25A

Structure (SMILES) | IC50 (recombinant human Cdc25C; [9]) [µM] | IC50 (recombinant human Cdc25A; [10]) [µM] | IC50 (recombinant human Cdc25B) [µM] | IC50 (recombinant human Cdc25C) [µM] | IC50 (recombinant human Cdc25A) [µM] | further results
CCC(C)C(=O)O[C@H](CC=C(C)C)C1=CC(=O)c2c(O)ccc(O)c2C1=O (stereo partly drawn) [α-Methyl-η-butylshikonin] | 13.5 ± 1.45 | 11.2 ± 1.45 | – | – | – | IC50 (recombinant human Cdc25B; [8]): 14.3 ± 1.27 µM
CC(=O)O[C@H](CC=C(C)C)C1=CC(=O)c2c(O)ccc(O)c2C1=O [Acetylshikonin] | – | – | 3.87 ± 0.68 | 4.67 ± 0.34 | 3.92 ± 0.66 | –
COc1cccc2c1C(=O)c1c(O)c3c(c(O)c1C2=O)C[C@@](O)(C(=O)CO)C[C@@H]3O[C@H]1C[C@H](N)[C@H](O)[C@H](C)O1 [Doxorubicin, reference compound] | – | – | – | – | – | IC50 (MCF-7 cells [1]): 0.28 ± 0.03 µM; IC50 (HeLa cells): 0.43 ± 0.06 µM; IC50 (tsFT210 cells [2]): 0.56 ± 0.14 µM
CC(C)=CCC(OC(=O)C=C(C)C)C1=CC(=O)c2c(O)ccc(O)c2C1=O (stereo not drawn) [β,β-Dimethylacrylshikonin] | – | 4.67 ± 0.85 | – | – | – | IC50 (recombinant human Cdc25B; [8]): 8.56 ± 0.67 µM
COC(=O)Nc1nc2ccc(C(=O)c3cccs3)cc2[nH]1 [Nocodazole, reference compound] | – | – | – | – | – | Effect on cell cycle progression (tsFT210 cells [3]): arrested the cells at the G2/M phase
CC(C)=CC[C@@H](OC(=O)C(C)C)C1=CC(=O)c2c(O)ccc(O)c2C1=O [Isobutylshikonin] | 5.89 ± 0.43 | 6.79 ± 1.02 | – | – | – | –
CC(C)=CCCC1=CC(=O)c2c(O)ccc(O)c2C1=O [Deoxyshikonin] | – | – | 7.32 ± 0.45 | 6.33 ± 0.65 | 3.22 ± 0.76 | –
CC(C)=CCC(OC(=O)CC(C)C)C1=CC(=O)c2c(O)ccc(O)c2C1=O (centres unmarked) [Isovalerylshikonin] | 11 ± 0.97 | 9.53 ± 0.78 | – | – | – | –
CC(C)=CC[C@@H](O)C1=CC(=O)c2c(O)ccc(O)c2C1=O [Shikonin] | – | – | – | 4.78 ± 0.18 | 2.14 ± 0.21 | Intracellular ROS (MCF-7 cells [4]): increased significantly; Protein levels of phosphorylated CDK1 in primary tumour tissues [5]: significantly increased; IC50 (MCF-7 cells [1]): 6.82 ± 0.76 µM; Tumour growth (K562 xenograft tumour; K562-bearing mice, 1, 5, or 10 mg/kg every other day, 21 days, vs vehicle): concentration-dependently inhibited tumour growth; Survival (Kaplan-Meier) (K562 xenograft tumour; K562-bearing mice, 1, 5, or 10 mg/kg, vs control group): prolonged; Phosphorylation status of CDK1 (Western blot) [6]: induced an accumulation of the tyrosine 15-phosphorylated form of CDK1; Intracellular ROS (tsFT210 cells [7]): increased significantly; IC50 (K562 cells): 6.15 ± 0.46 µM; IC50 (HeLa cells): 9.56 ± 1.03 µM; Effect on cell cycle progression (tsFT210 cells [3]): blocked at the G2/M phase in a concentration-dependent manner; IC50 (tsFT210 cells [2]): 8.97 ± 0.87 µM
CC1=CC(=O)c2ccccc2C1=O [menadione, reference compound] | – | – | 5.37 ± 0.45 | 5.13 ± 0.24 | 4.12 ± 0.87 | –
